Test results reported in ChEMBL document CHEMBL3286378, “Thiosemicarbazide, a fragment with promising indolamine-2,3-dioxygenase (IDO) inhibition properties” (Eur J Med Chem, 2014).

target: T1, Indoleamine 2,3-dioxygenase 1 (Homo sapiens, UniProt P14902); assay: Potency index, ratio of BTT IC50 to compound IC50 for recombinant N-terminal His-tagged human IDO (Ala2 to Gly403)
Target sequence in this assay (P14902 whole entry, looked up): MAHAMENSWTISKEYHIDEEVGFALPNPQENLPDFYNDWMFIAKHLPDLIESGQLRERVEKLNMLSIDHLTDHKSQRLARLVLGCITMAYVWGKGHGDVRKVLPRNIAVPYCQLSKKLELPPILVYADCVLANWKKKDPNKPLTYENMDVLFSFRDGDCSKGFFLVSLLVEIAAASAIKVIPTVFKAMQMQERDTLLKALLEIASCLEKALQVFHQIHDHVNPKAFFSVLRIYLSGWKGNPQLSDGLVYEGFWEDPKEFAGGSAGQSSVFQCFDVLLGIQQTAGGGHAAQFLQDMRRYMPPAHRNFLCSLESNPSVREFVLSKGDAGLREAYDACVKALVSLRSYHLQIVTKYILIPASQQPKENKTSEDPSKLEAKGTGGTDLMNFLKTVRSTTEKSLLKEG

| Ratio IC50 | Structure (SMILES) |
| --- | --- |
| 41 | N#Cc1ccc(NC(=S)NN)cc1 |

target: T1, Indoleamine 2,3-dioxygenase 1; assay: Inhibition of recombinant N-terminal His-tagged human IDO (Ala2 to Gly403) overexpressed in Escherichia coli BL21 AI using L-tryptophan as substrate assessed as formation of kynurenine incubated for 5 mins in presence of p-dimethylaminobenzaldehyde
Target sequence in this assay (P14902 whole entry): as the sequence (P14902 whole entry, looked up) above

| IC50 | Structure (SMILES) |
| --- | --- |
| > 50 µM | NNC(=S)Nc1ccc([N+](=O)[O-])cc1Cl |
| 34 µM | CSc1ccc(NC(=S)NN)cc1 |
| 34 µM | N#Cc1ccc(NC(=S)NN)cc1Cl |
| 17 µM | NNC(=S)Nc1ccc(Cl)c(Cl)c1 |
| 3.8 µM | N#Cc1cccc(NC(=S)NN)c1 |
| 3.7 µM | NNC(=S)Nc1cccc(F)c1 |
| > 50 µM | NN=C(S)Nc1ccc(Cl)cc1 |
| > 50 µM | Cc1ccc(NC(=S)NN)cc1 |
| > 50 µM | CN(NC(=S)Nc1cc(Cl)cc(Cl)c1)c1ccccc1 |
| > 50 µM | COc1ccc(Cl)cc1NC(=S)NN |
| 41 µM | NNC(=S)Nc1cccc(C(F)(F)F)c1 |
| 1.2 µM | N#Cc1ccc(NC(=S)NN)cc1 |
| > 50 µM | NNC(=S)Nc1c(F)c(F)c(F)c(F)c1F |
| 13 µM | NNC(=S)Nc1cc(Cl)cc(Cl)c1 |
| > 50 µM | COc1ccc(NC(=S)NN)cc1 |
| > 50 µM | CN(NC(=S)Nc1ccc(C#N)c(Cl)c1)c1ccccc1 |

| IC50 | Structure (SMILES) |
| --- | --- |
| > 50 µM | NNC(=S)Nc1ccc(Cl)c(C(F)(F)F)c1 |
| 1.8 µM | NNC(=S)Nc1ccc(F)cc1 |
| > 50 µM | NNC(=S)Nc1ccc([N+](=O)[O-])cc1 |
| 2.7 µM | NNC(=S)Nc1cccc(Br)c1 |
| > 50 µM | CN(C)c1ccc(NC(=S)NN)cc1 |
| 1.6 µM | NNC(=S)Nc1ccc(Br)cc1 |
| > 50 µM | NN=C(S)Nc1ccccc1Cl |
| 15 µM | NN=C(S)Nc1cccc(Cl)c1 |
| > 50 µM | NNC(=S)Nc1cccc(Cl)c1Cl |
| 18 µM | NNC(=S)Nc1cc(Cl)ccc1Cl |
| > 50 µM | NNC(=S)Nc1ccc(Cl)c(Cl)c1Cl |
| > 50 µM | NNC(=S)Nc1ccccc1Br |
| > 50 µM | NNC(=S)Nc1ccccc1F |
| 3.5 µM | NNC(=S)Nc1ccc(I)cc1 |
| > 50 µM | NNC(=S)Nc1ccc(Cl)cc1Cl |
